This note sets out measurements from patent publication EP2226073A1, “Topical pharmaceutical composition comprising an antiseptic and arginine for wound healing” (EURO-CELTIQUE S.A., priority 2009, dated 2010).

This series concerns Human ciliated epithelium cells.

Protocol: Human ciliated epithelium cells were analyzed by an in vitro method which allows for determining ciliary activity or ciliary vibration. The corresponding cells were exposed and incubated with 100 µl test substance at a temperature of 37°C. After an incubation period of 5 min ciliary vibration was measured.
By using this in vitro method, a nutrient solution (Dulbeco) as a standard, a 0.2% chlorohexidine solution (a common antiseptic agent), conventional polyvidone iodine solutions (Betaisodona) of different concentrations (5.0%, 2.5%, and 1.25% PVP-iodine), and a liposomal solution containing 4.5% PVP-iodine were tested.

As for `[H]/N=C(\N/C(=N/[H])NCCCCCCNC(=N)NC(=N)Nc1ccc(Cl)cc1)Nc1ccc(Cl)cc1` [chlorohexidine], the ciliary vibration entry is given as “decrease of the measured ciliary vibration”.
